The target of assay [1] is T1, MC3r (Homo sapiens, UniProt P41968).
T1 construct: 0959 (cAMP); host or cells: CHO cells
Kind of assay: Radioligand binding, displacement of 125I-NDP-αMSH (Cerep). The note with it: Example 2, α-MSH analogues. On the procedure: Murine B16-F1 cells expressing MCr1 are used for determination of binding affinity to and agonist activity against the MC1r. Human recombinant CHO cells expressing MC3r, MC4r or MC5r are used for determination of affinity to or agonist activity against the MC3r, MC4r and MC5r, respectively. […] The test items are tested in a concentration range of 10^−13 to 10^−5M.

In assay [2] the target is T2, human GLP-1 receptor (Homo sapiens, UniProt P43220).
T2 construct: expressed in transfected cells; host or cells: CHO-K1 cells
Kind of assay: cAMP production (HTRF) in CHO-K1 cells expressing GLP-1 receptor. The class given is cell-based. The note with it: CHO-K1; read-out: Max efficacy in % of control peptide. On the technique in general: Changes in cAMP serve as a functional read-out for many G protein-coupled receptors.

Assay [3] concerns the target T3, recombinant human type 2 Formyl peptide receptor (FPR2) (Homo sapiens, UniProt P25090).
T3 construct: expressed in transfected cells
T3 sequence (P25090 1-351): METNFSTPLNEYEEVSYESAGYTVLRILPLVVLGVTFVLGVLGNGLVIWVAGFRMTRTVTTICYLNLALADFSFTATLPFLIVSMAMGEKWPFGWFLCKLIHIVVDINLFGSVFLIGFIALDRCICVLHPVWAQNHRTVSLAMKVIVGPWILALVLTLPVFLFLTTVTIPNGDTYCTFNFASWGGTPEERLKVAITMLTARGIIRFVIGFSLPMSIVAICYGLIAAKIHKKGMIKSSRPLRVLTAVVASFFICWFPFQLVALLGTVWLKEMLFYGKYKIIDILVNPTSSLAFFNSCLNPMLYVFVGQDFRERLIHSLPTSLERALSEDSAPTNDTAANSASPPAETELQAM
Kind of assay: Aequorin light emission agonist assay in recombinant FPR2 cells. In kind it is cell-based. As to conditions: at the highest tested dose; read-out: maximal agonist activity, % of max response of internal control Trp-Lys-Tyr-Met-Val-Met. The method, then: Recombinant cells co-expressing mitochondrial apoaequirin and recombinant human type 2 Formyl peptide receptor (FPR2) were grown for 18 hours prior to testing in media without antibiotics were detached by gentle flushing with PBS-EDTA (5 mM EDTA), recovered by centrifugation and re-suspended in assay buffer (DHEM/HAM's F12 with HEPES and 0.1% protease free BSA). Cells were then incubated for at least 4 hours at room temperature coelenterazine h (from Molecular Probes) before DR studies were conducted.
50 μl of cell suspension was injected on 50 μl of the test or control compound (solubilized in PBS/0.5% BSA and finally diluted from a stock solution of 1 mM) at increasing concentrations in 96 wells plates and then incubated 30 min at room temperature. The resulting light emission was recorded using the Hamamatsu functional drug Screening system 6000 (FDSS6000). For standardization of emission of recorded light across plates and between experiments 100 μM digitonin or 20 μM ATP were added to some of the wells.
The test compounds were tested in a concentration range from 10^−11 to 10^−5M
Data is presented as mean values.

SMILES strings stand for the structures. Where a SMILES comes first, the peptide text is derived from it.

The term Ki denotes the dissociation constant of the complex between target and ligand, obtained from inhibition or displacement. Read a high Ki as weaker binding.

T2 sequence (P43220 24-463): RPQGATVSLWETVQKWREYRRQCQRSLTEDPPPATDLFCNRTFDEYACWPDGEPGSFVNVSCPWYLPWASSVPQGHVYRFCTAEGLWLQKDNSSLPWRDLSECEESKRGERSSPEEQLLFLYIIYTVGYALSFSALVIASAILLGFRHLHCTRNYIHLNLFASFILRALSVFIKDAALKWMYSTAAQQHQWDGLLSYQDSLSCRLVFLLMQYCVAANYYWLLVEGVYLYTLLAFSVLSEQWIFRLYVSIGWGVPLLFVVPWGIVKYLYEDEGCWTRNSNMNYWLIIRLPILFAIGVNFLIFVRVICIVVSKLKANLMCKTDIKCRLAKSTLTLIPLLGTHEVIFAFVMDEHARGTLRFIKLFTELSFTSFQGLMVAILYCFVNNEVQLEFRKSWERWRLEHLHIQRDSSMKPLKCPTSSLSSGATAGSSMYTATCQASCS
T1 sequence (P41968 whole entry): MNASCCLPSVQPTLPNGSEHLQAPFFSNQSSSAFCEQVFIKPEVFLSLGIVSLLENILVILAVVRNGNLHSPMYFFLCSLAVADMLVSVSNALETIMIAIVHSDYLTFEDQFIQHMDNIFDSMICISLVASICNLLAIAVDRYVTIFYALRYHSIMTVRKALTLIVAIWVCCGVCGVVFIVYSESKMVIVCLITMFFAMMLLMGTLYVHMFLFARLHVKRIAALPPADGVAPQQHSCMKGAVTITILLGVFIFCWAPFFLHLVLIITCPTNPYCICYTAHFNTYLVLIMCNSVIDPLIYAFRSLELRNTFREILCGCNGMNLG

Regarding `CSCC[C@H](NC(=O)[C@H](CO)NC(=O)[C@H](Cc1ccc(O)cc1)NC(=O)[C@H](CO)NC(=O)[C@H](CCCCNC(=O)[C@H](CCCCN)NC(=O)[C@H](CCCCN)NC(C)=O)NC(C)=O)C(=O)N[C@@H](CCC(=O)O)C(=O)N[C@@H](Cc1c[nH]cn1)C(=O)N[C@@H](Cc1ccccc1)C(=O)N[C@@H](CCCNC(=N)N)C(=O)N[C@@H](Cc1c[nH]c2ccccc12)C(=O)NCC(=O)N[C@@H](CCCCN)C(=O)N1CCC[C@H]1C(=O)N[C@H](C(N)=O)C(C)C` [Analogue 1], the inhibitory constant (Ki) in assay [1] worked out at 24 nM. For the same compound, the Emax in assay [2] was 101%.
For `CSCC[C@H](NC(=O)[C@H](C)NC(C)=O)C(=O)N[C@H](C(=O)N[C@@H](CO)C(=O)N[C@@H](CCC(=O)O)C(=O)N[C@@H](Cc1ccccc1)C(=O)N[C@@H](CC(C)C)C(=O)N[C@@H](CCCCNC(=O)[C@H](CCCCN)NC(=O)[C@H](CCCCNC(=O)[C@H](CCCCN)NC(C)=O)NC(C)=O)C(=O)N[C@@H](CCC(N)=O)C(=O)N[C@@H](C)C(=O)N[C@@H](Cc1c[nH]c2ccccc12)C(N)=O)C(C)C` [analogue 7] (HELM PEPTIDE1{[ac].A.M.V.S.E.F.L.K.Q.A.W.[am]}|PEPTIDE2{[CC(=O)N[C@@H](CCCCN)C(=O)NCCCC[C@H](NC(C)=O)C(=O)[*:2]].K}$PEPTIDE1,PEPTIDE2,9:R3-2:R2$$$V2.0), in assay [3], the Emax was determined as 85%.

(Values after patent publication US11141455B2, “Peptide analogues with branched amino acid probe(s)” (priority 2014, dated 2021).)
